Here are results for one molecule from patent publication US9676691B2, “Method for producing indanone derivatives” (SYMRISE AG, priority 2011, dated 2017).

Data set [1] can be described thus: Examination of the crystallisation in emulsion. The following applies: with respect to the entire mass of the cosmetic formulation (0.025% by weight). It is filed as physicochemical. An excerpt: According to the indications in the following Table 1, two cosmetic formulations were produced as emulsions [E(I) and E (II)]. The product from example 1a contained pure 2-benzylidene-3,3-dimethyl-5,6-dimethoxy-1-indanone and was used in the emulsion E(I). For the emulsion E(II), 2-benzylidene-3,3-dimethyl-5,6-dimethoxy-1-indanone from example 1a was used, but it was contaminated with benzyl-3,3-dimethyl-5,6-dimethoxy-1-indanone in such a manner that a 5% by weight contamination was present, with respect to the total mass of the contaminated product.
The emulsions were covered and left to stand at ambient temperature for 3 days. Subsequently, the emulsions were examined under a microscope. Emulsion E(I) had no crystals. In emulsion E(II), crystal seeds having a size of from 4 to 7 μm were able to be observed.

Data set [2] is described as follows: Solubility in cosmetic oils. To be noted: in contrast to the target product. It is filed as physicochemical.

For the molecule `COc1cc2c(cc1OC)C(C)(C)C(Cc1ccccc1)C2=O` (centres unmarked) [2-benzyl-3,3-dimethyl-5,6-dimethoxy-1-indanone], in data set [1], the “proportion of by-product that initiates the formation of crystallisation seeds in the cosmetic formulation” value was found to be 250 ppm. For the same molecule, in data set [2], the “solubility in cosmetic oils” value was “cannot be readily dissolved in cosmetic oils”.
